The record followed here is PubChem BioAssay AID1249 (Columbia University Molecular Screening Center, 2008).

The test system of test [1] is cell-based imaging, cytoskeleton assembly phenotype, high content. The test is described as follows: cellular cytoskeleton assembly phenotype modulators – imaging, high-content imaging, retest and dose response, confirmation (AID 1249).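 Also: compound exposure lasted 24 h before fixation.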
Assay in test [2]: as above
The following applies: cell-based imaging, cytoskeleton assembly phenotype, high content; cell count; at 10 µM; stronger effect = lower value.

Activity calls are given as the source filed them. No rule for the calls is given here. Some results are limits rather than exact numbers.

In the case of `CCOc1ccc(S(=O)(=O)Nc2cc(OC)ccc2OC)cc1`, the IC50 in test [1] is > 10 µM (inactive). This compound showed a cell count in test [2] of 44.2%.

For the compound `N#CC1=C(N)Oc2c(ccc3ccccc23)C1c1cccs1` (centres undefined), in test [1], the IC50 is > 10 µM (inactive). In addition, the cell count in test [2] was 28.9%.

As for `CCCCN1C(=O)/C(=C/C=C2\N(C)c3ccccc3C2(C)C)SC1=S`, the IC50 in test [1] is > 10 µM (inactive). For the same compound, in test [2], the cell count was found to be 94.3%.

Turning to `CCN(CC)c1ccc2cc(-c3nc4ccccc4n3C)c(=O)oc2c1`, the IC50 in test [1] is > 10 µM (inactive). In test [2], this compound yielded a cell count of 99.7%.

Consider `C=CCSc1nc2ccccc2n1C(=O)/C=C/c1cc(OC)c(OC)c(OC)c1`, for which, in test [1], the IC50 is > 10 µM (inactive). In test [2], this compound yielded a cell count of 102%.

Regarding `O=C(O)C1CCCCC1C(=O)Nc1cc(Cl)ccc1Cl` (centres undefined), in test [1], the IC50 is > 10 µM (inactive). This compound yielded a cell count in test [2] of 94.2%.

In the case of `CCOC(=O)c1[nH]c(C)c(C(=O)c2cc(F)ccc2F)c1C`, the IC50 in test [1] was > 10 µM (inactive). The compound also had a cell count in test [2] of 48.7%.

As for `O=C(c1ccco1)N1CCN(C(=O)N2c3ccccc3Sc3ccccc32)CC1`, the IC50 in test [1] is > 10 µM (inactive). In test [2], this compound came in with a cell count of 42%.

Turning to `COCCN1C(=O)c2oc3c(C)cc(C)cc3c(=O)c2C1c1cccc(O)c1` (centres undefined), the IC50 in test [1] is > 10 µM (inactive). Also, the cell count in test [2] came out at 86%.

Turning to `Cc1cc(C)c2nc(SCC(=O)N3CC(=O)Nc4ccccc43)c(C#N)cc2c1`, the IC50 in test [1] is > 10 µM (inactive). This compound also registered a cell count in test [2] of 51.1%.

As for `CC1=C([N+](=O)[O-])C(c2cccc(Br)c2)C2=C(N1)c1ccccc1C2=O` (centres undefined), the 50% inhibitory concentration (IC50) in test [1] was 2.65 µM. Moreover, the cell count in test [2] turned out to be 30.8%.

Turning to `O=S(=O)(c1ccc2c(c1)C(=NO)c1cc(S(=O)(=O)N3CCCCC3)ccc1-2)N1CCCCC1`, the IC50 in test [1] is > 10 µM (inactive). Further, the cell count in test [2] was 126%.

On to `COc1cc2c3nnc(-c4ccc(F)cc4)c-3cn(Cc3ccccc3)c2cc1OC`, for which, in test [1], the IC50 was > 10 µM (inactive). The cell count in test [2] was 86.3%.

On to `O=C(c1ccc(Br)cc1)c1cc([N+](=O)[O-])ccc1N1CCCCC1`, for which the IC50 in test [1] is > 10 µM (inactive). The compound also showed a cell count in test [2] of 81.7%.

For the compound `O=C(N/N=C/C(Br)=C/c1ccccc1)c1n[nH]c2c1CCC2`, in test [1], the IC50 is 5 µM. In test [2], this compound returned a cell count of 30.8%.

Take `Cc1c(C(=O)OCC(C)C)[nH]c2c1C(=O)CC(c1ccco1)C2` (centres undefined): the IC50 in test [1] was > 10 µM (inactive). In addition, the cell count in test [2] amounted to 38.8%.

`Cc1ccc(C(=O)OCn2ncc(Cl)c(Cl)c2=O)cc1`: the IC50 in test [1] is 3.08 µM. The cell count in test [2] was 1.4%.

Regarding `O=C(N/N=C/C(Br)=C\c1ccccc1)c1n[nH]c2c1CCC2`, the IC50 in test [1] is 0.582 µM. Also, the cell count in test [2] came out at 33.3%.

Turning to `COc1ccc(C2=Nn3c(nnc3-c3ccc(OC)cc3)SC2)cc1`, in test [1], the IC50 was > 10 µM (inactive). The cell count in test [2] was 91.1%.

Consider `O=C(CS(=O)c1ccc(C(F)(F)F)cc1[N+](=O)[O-])Oc1ccccc1` (centres undefined), for which the IC50 in test [1] is > 10 µM (inactive). The cell count in test [2] came to 94.1%.

On to `CCN(CC)c1ccc2cc(-c3nc4ccccc4[nH]3)c(=O)oc2c1`, for which the IC50 in test [1] was > 10 µM (inactive). Besides, in test [2], the cell count stood at 96.6%.

As for `COc1cc(N2CCCC2)c(OC)cc1/C=c1/sc2nc3ccccc3n2c1=O`, the IC50 in test [1] is > 10 µM (inactive). The compound further registered a cell count in test [2] of 87.5%.

In the case of `CC(C)Oc1ccccc1C1CC(=O)Nc2cc3c(cc21)OCO3` (centres undefined), in test [1], the IC50 was > 10 µM (inactive). The cell count in test [2] was 113%.

As to `CC1CCC/C=C/C2CC(O)CC2C(O)/C=C/C(=O)O1` (centres undefined), in test [1], the IC50 was > 10 µM (inactive). In test [2], this compound yielded a cell count of 33.9%.

As to `CN(C)c1ccc(C(=O)c2ccc(N(C)C)c3ccccc23)cc1`, in test [1], the half-inhibitory concentration (IC50) is 0.599 µM. In test [2], this compound came in with a cell count of 28.2%.

For `Cc1cc(C)c(S(=O)(=O)Nc2ccc3c4c(cccc24)CC3)c(C)c1`, the IC50 in test [1] was > 10 µM (inactive). Further, the cell count in test [2] came out at 78.5%.

Consider `O=C1CC(c2cc(Br)ccc2F)c2cc3c(cc2N1)CCC3` (centres undefined), for which the IC50 in test [1] was > 10 µM (inactive). In test [2], this compound yielded a cell count of 105%.

Consider `CCSc1nc2ccccc2n1C(=O)/C=C\c1ccc(OC)c(OC)c1`, for which, in test [1], the IC50 was > 10 µM (inactive). In addition, the cell count in test [2] was determined as 111%.

With `COc1ccccc1-n1cnc2cc(NCc3cccs3)ccc21`, the IC50 in test [1] is 3.24 µM. In test [2], the cell count amounted to 31.6%.

Turning to `CCOC(=O)Nc1nc(-c2ccccc2)c(C(=O)c2ccccc2)s1`, the IC50 in test [1] was > 10 µM (inactive). In test [2], this compound had a cell count of 53.7%.

With `O=C(Nc1nc(-c2ccncc2)cs1)C1COc2ccccc2O1` (centres undefined), in test [1], the IC50 is > 10 µM (inactive). In addition, in test [2], the cell count was determined as 92.2%.

With `CC(/C=N/NC(=O)c1cc(-c2ccncc2)nc2ccccc12)=C\c1ccco1`, the IC50 in test [1] is 4.55 µM. The cell count in test [2] is 35.1%.

For `COc1ccc(NS(=O)(=O)c2cc(C)ccc2NC(=O)c2cc(C)oc2C)cc1`, in test [1], the IC50 was > 10 µM (inactive). Further, in test [2], the cell count amounted to 52%.

Consider `Cc1ccc(NC2=C/C(=N\S(=O)(=O)c3cccs3)c3ccccc3C2=O)c(C)c1`, for which the IC50 in test [1] is > 10 µM (inactive). This compound returned a cell count in test [2] of 79.8%.

On to `CCCCCOc1ccc(Br)cc1/C(C)=N/NC1=NCCN1`, for which, in test [1], the IC50 was 5.97 µM. Moreover, the cell count in test [2] was 19.4%.

For the compound `COc1ccc(NC(=O)/C(Cl)=C(/Cl)S(=O)Cc2ccc(C)cc2)cn1` (centres undefined), in test [1], the IC50 is > 10 µM (inactive). For the same compound, in test [2], the cell count was found to be 63.4%.

For the compound `N#CC1=C2SCC(O)(c3ccccc3)N2C(=O)CC1c1cccs1` (centres undefined), the IC50 in test [1] was > 10 µM (inactive). The compound also displayed a cell count in test [2] of 26.4%.

With `CCN(CC)c1ccc2c(c1)OC(N)=C(C#N)C2c1cccnc1` (centres undefined), in test [1], the IC50 is 0.625 µM. The compound further displayed a cell count in test [2] of 33.7%.

For the compound `Cc1ccc(Nc2nc(-c3c(C)nc4ccccn34)cs2)cc1`, in test [1], the 50% inhibitory concentration (IC50) was 1.37 µM. Moreover, the cell count in test [2] was 31.8%.

Regarding `CCCC1=Nc2cc(C(=O)NCCCOCC)ccc2Sc2ccccc21`, the half-inhibitory concentration (IC50) in test [1] is 0.873 µM. Moreover, in test [2], the cell count was determined as 37.3%.

For `Cc1ccc(NC(=O)Cn2nnc(-c3ccccc3NC(=O)c3cccs3)n2)cc1`, the IC50 in test [1] was > 10 µM (inactive). In test [2], this compound yielded a cell count of 109%.

Turning to `CCn1c2ccccc2c2cc(NC(=O)c3cc(OC)c(OC)c(OC)c3)ccc21`, the IC50 in test [1] is 1.73 µM. The compound further came in with a cell count in test [2] of 32.4%.

With `COc1ccc(-c2c/c(=N\c3nc(-c4ccccc4)c(C)s3)c3ccccc3o2)cc1O`, the IC50 in test [1] is > 10 µM (inactive). In test [2], the cell count came out at 113%.

With `Cc1cc(=O)oc2cc(OCC3CC(c4ccccc4Cl)=NO3)ccc12` (centres undefined), the IC50 in test [1] is > 10 µM (inactive). The compound further registered a cell count in test [2] of 92.5%.

For the compound `COC(=O)C[C@]1(C(=O)OC)CN(C#N)N(c2ccc(Cl)cc2)C12c1ccccc1-c1ccccc12`, the IC50 in test [1] was > 10 µM (inactive). In test [2], the cell count was 82%.

For the compound `CCC1=Nc2cc(C(=O)NCCCOC)ccc2Sc2ccccc21`, in test [1], the IC50 was > 10 µM (inactive). For the same compound, in test [2], the cell count stood at 29.1%.

Take `COc1ccc(-c2cc(C(F)(F)F)n3nc(C(=O)Nc4cc(C)on4)cc3n2)cc1OC`: in test [1], the IC50 was > 10 µM (inactive). This compound also showed a cell count in test [2] of 92.1%.

In the case of `COc1ccc(NC(=O)/C(Cl)=C(/Cl)S(=O)Cc2ccccc2)cn1` (centres undefined), the IC50 in test [1] was > 10 µM (inactive). In addition, the cell count in test [2] was 48.1%.

On to `CCOc1cc(CNc2ccc3c(c2)OCCO3)cc(Br)c1OC`, for which the IC50 in test [1] is > 10 µM (inactive). In test [2], this compound had a cell count of 37.1%.

With `CC(=O)Nc1ccc(S(=O)(=O)NC2(C(F)(F)F)C(=O)Nc3c2c(=O)[nH]c(=O)n3C)cc1` (centres undefined), in test [1], the IC50 was > 10 µM (inactive). The compound further returned a cell count in test [2] of 90.8%.

For the compound `CC(/C=N/NC(=O)c1cc(-c2ccc(Cl)cc2)nc2ccccc12)=C\c1ccco1`, in test [1], the IC50 was > 10 µM (inactive). In test [2], this compound showed a cell count of 115%.

In the case of `COc1cc(-c2nnc3n2N=C(c2ccccc2)CS3)cc(OC)c1OC`, the IC50 in test [1] was > 10 µM (inactive). In test [2], the cell count is 90.7%.

On to `CCCOC(=O)c1[nH]c2c(c1C)C(=O)CC(c1cccs1)C2` (centres undefined), for which the IC50 in test [1] is > 10 µM (inactive). The compound also registered a cell count in test [2] of 40.1%.

Turning to `O=Cc1cc2ccccc2nc1SCc1ccc(Cl)c(Cl)c1`, the IC50 in test [1] was > 10 µM (inactive). Besides, the cell count in test [2] amounted to 94.3%.

Consider `N=c1oc2c3c4c(cc2cc1C(=O)Nc1ccccc1)CCCN4CCC3`, for which the IC50 in test [1] was 8.21 µM. In test [2], this compound registered a cell count of 99.4%.

Take `COc1cc(C2C(C#N)=C(C)NC3=C2C(=O)c2ccccc23)cc(OC)c1OC` (centres undefined): in test [1], the IC50 was 1.55 µM. The cell count in test [2] came out at 34%.

Regarding `COc1ccc(CCNc2nnc(Sc3nnnn3-c3ccccc3)s2)cc1OC`, the concentration for half-maximal inhibition (IC50) in test [1] is 1.87 µM. Also, in test [2], the cell count stood at 32.1%.

Take `COc1ccc(OC)c(C2C3=C(COC3=O)Nc3cc4c(cc32)OCO4)c1` (centres undefined): in test [1], the IC50 is > 10 µM (inactive). The compound also had a cell count in test [2] of 102%.

Take `Cc1ccc(-c2nc(NC(=O)c3nn(C)cc3[N+](=O)[O-])sc2C)cc1C`: the IC50 in test [1] was > 10 µM (inactive). The compound further returned a cell count in test [2] of 88%.

Turning to `CCOC(=O)c1[nH]c(C)c(C(=O)N2CCc3ccccc32)c1C`, the half-maximal inhibitory concentration (IC50) in test [1] was 5 µM. For the same compound, in test [2], the cell count amounted to 31.8%.

For `CCCOc1ccccc1C1CC(=O)Nc2cc3c(cc21)OCCO3` (centres undefined), the IC50 in test [1] was > 10 µM (inactive). Also, the cell count in test [2] is 125%.

`CCOc1ccccc1C(=O)N1CCN(c2cccc(Cl)c2)CC1`: the IC50 in test [1] was 1.25 µM. The cell count in test [2] came to 36.6%.

The term IC50 denotes the concentration that gives 50% inhibition.
